Laboratory results published in US11000524B2, “Tyrosine kinase inhibition as a treatment for epilepsy” (Iowa State University Research Foundation, Inc., priority 2016, dated 2021).

Assays:
[1] = test system: hippocampal in vitro model; conditions: Salter and Kalia, 2004, Sanna et al., 2000; cited from earlier work
[2] = test system: kainate-induced SE in C57BL/6J mice; assay: Saracatinib pretreatment 4 h before kainate-induced status epilepticus (behavioral seizure scoring, modified Racine scale); type: in vivo; conditions: for mortality during SE / latency to the onset of first CS: saracatinib 25 mg/kg oral 4 h prior to SHD kainate 25 mg/kg i.p.; for mortality during SE: about 20% in vehicle group
Experimental: We tested Fyn knockout mice (fyn^−/−), bred on C57BL/6J hybrid background mouse (fyn^+/+), and in wildtype C57BL/6J mice treated with the fyn kinase inhibitor, Saracatinib ([…], 25 mg/kg, oral, single dose) 4 h prior to the induction of SE with KA (5 mg/kg, i.p. at 30 min intervals or as a single high dose of 25 mg/kg). Two hours after the established SE, the behavioral SE was terminated with diazepam (10 mg/kg, i.p.). The animals were euthanized with pentobarbitone (100 mg/kg, i.p.) at 4 h, 24 h and 7d (for IHC & WB) and 4 weeks (video-EEG group) post-SE. The brain, serum, and cerebrospinal fluid (CSF) were collected for various analyses. […] We examined the time-dependent activation of fyn in microglial cells and initiation of neuro-inflammatory and neurodegenerative mechanisms in the hippocampus at 4 h, 24 h and 7 day time points post-SE. We also performed electroencephalographic (EEG) analysis to determine the spike rate and SRS frequency.
Thirty C57BL/6J mice were used for the saracatinib experiment. In this experiment, 15 mice were treated with saracatinib (25 mg/kg, oral gavage as a single dose) at 4 h prior to a single high dose (SHD) of kainate (25 mg/kg, i. p), while the remaining 15 mice were given the vehicle [0.5% hydroxypropyl methylcellulose in 0.1% tween 80] 4 h prior to kainate.
All animals administered with kainate were subjected to video recording. The seizures were staged and the SE was scored by direct observation of animals during the 2 h SE and exact duration of each stage of seizure was calculated. The video recordings were used for secondary analysis and for independent verification of seizures by two different personnel who were not involved in direct scoring during the experiments. The personnel who did the behavioral analysis were blind to the experimental groups. The behavioral seizures were scored based on modified Racine scale from stage 1 to 5 as described previously (Beamer et al., 2012; Puttachary et al., 2015b; Racine, 1972; Tse et al., 2014). Briefly, the staging was as follows: stage 1, absence-like immobility; stage-2, hunching with facial or manual automatisms evident from brisk movement of vibrissae and repeated grooming of the face; stage 3, rearing with forelimb clonus and facial or manual automatisms; stage 4, repeated rearing with continuous forelimb clonus and falling; and stage-5, generalized tonic clonic convulsions with lateral recumbence or jumping and/or wild running followed by generalized convulsions. Stage 1 and stage 2 were categorized as non-convulsive seizures (NCS) and stage ≥3 as convulsive seizures (CS) (Beamer et al., 2012; Puttachary et al., 2015b; Tse et al., 2014). The latency to the onset of CS and the duration of seizures were analyzed for each animal within a group as described previously (Puttachary et al., 2015b; Tse et al., 2014). The duration of CS is the total time spent by an animal in stage ≥3 during the 2 h of established SE until the diazepam was administered. Since a very few animals reached stage 5 in the saracatinib pretreated group and in the fyn^−/− mice, we considered stage ≥3 as the starting point for 2 h established SE. The data were analyzed and the severity of seizures, duration of CS, latency to CS onset, and mortality rate were compared between the groups.
In all kainate-treated animals, the behavior seizures were terminated with diazepam (10 mg/kg, i.p.) at 2 h after the first onset of convulsive seizure. The 2 h duration between the onset of convulsive seizure and the diazepam treatment was considered as 2 h established SE. During this period, all wildtype control mice had continuous convulsive seizures for >30 min. All kainate-treated animals received 1 mL of Ringer's lactate solution (s.c.) twice a day for three days to enable them to recover from dehydration and the lost bodyweight due to SE.

[3] = LC-MS of saracatinib in hippocampal tissue (blood brain barrier crossing); type: in vivo, C57BL/6J mice
Experimental: For the LC-MS the optimum dose of saracatinib for our experiment was based on the published literature (Green et al., 2009; Hannon et al., 2010; Liu et al., 2012; Yang et al., 2010). […] The mice hippocampal tissues were homogenized in ˜0.2 mL 1:1 methanol:water using bullet blender. An additional 125 μL HPLC grade water was added to the homogenized samples. This was followed by three similar successive extractions with 375 μL 3:1 acetonitrile:water. The homogenate was sonicated for 10 min in a sonication water bath. The sample was pelleted by centrifugation at 13,000 g for 7 min and the supernatant was collected after each extraction and the samples were pooled. […]
The LC-MS analysis for saracatinib was conducted using an Agilent Technologies 1290 Infinity Binary Pump UHPLC system coupled to an Agilent Technologies 6540 UHD Accurate-Mass Q-TOF mass spectrometer in high resolution mode ([…]) and scanning m/z 100-1700. […] Saracatinib detection is represented by extracted ion chromatogram (EIC) using a 10 ppm extraction window and was analyzed (FIG. 1E) using Agilent Mass Hunter Qualitative Analysis B.07.00 software. The X-axis on the EIC represents retention time and the Y-axis represents the abundance of ions detected. Saracatinib concentrations were observed as the area of the EIC peaks and was calculated based on the linear curve of the observed peak areas of standards. […]

rat kainate model of TLE = assay: Saracatinib post-treatment in the rat kainate model of TLE, 28 days continuous video-EEG; type: in vivo, Sprague Dawley rats; conditions: for rats that did not develop epilepsy (of seven treated): 25 mg/kg oral from 2 h post-diazepam, twice daily 3 days then daily 4 days
Experimental: Rats were used in the following example. The rats were treated as per the materials and methods of Examples 2-10 except for the following. Fourteen rats were used and implanted with telemetry device 10 days prior to the induction of SE, with RLD of kainate, as described previously (Puttachary et al., 2016b). The telemetry device used was CTA-F40 PhysioTel™ telemetry device (Data Science International, Minneapolis, USA) for video-EEG recording.
Disabling the Fyn kinase function, either by pretreatment with saracatinib or fyn KO, prior to SE induction impacts the initial severity of SE and thus compromises the epileptogenic events. Therefore, we tested the effect of Fyn kinase inhibition with the saracatinib on epileptogenesis after the induction of SE in the rat kainate model of TLE. To mimic human TLE from translational view point, the rat kainate model is more suitable in terms of progressive nature of the disease since the frequency of spontaneous CS consistently increases over time in rats in contrast to the mouse kainate model (Puttachary et al., 2015b and 2016b). Therefore, we tested the saracatinib in the rat kainate model after terminating the behavioral SE with diazepam. The saracatinib (25 mg/kg, oral) was administered at 2 h post-diazepam and repeated twice daily for first three days followed by a single dose daily for the next four days during the first week of post-SE period. The treatment regimen was chosen based on increase in Fyn and PKCδ levels during the first week of post-SE in the mouse model.

[4] = test system: rat kainate model of epilepsy; assay: Saracatinib post-treatment in the rat kainate model of epilepsy, 4 months video-EEG study; type: in vivo, rats; conditions: four months monitoring
Experimental: Fifteen rats (n=8 for control and 7 for SAR) were studied over the course of four months. Treatments and methods used in Example 12 were followed for this Example except for the extended time and the SAR/vehicle was administered 2 h after stopping the seizures (SE) with diazepam. The SAR was given at 25 mg/kg, oral twice daily for three days followed by daily for next four days. The drug was NOT administered after 7-day time point.

[5] = saracatinib 25 mg/kg oral single dose 4 h prior to kainate, vs vehicle, 2 h established SE

CC(C)(C)n1nc(-c2ccc(Cl)cc2)c2c(N)ncnc21 [PP2]
frequency of epileptiform discharges [1]: reduces frequency of epileptiform discharges

CN1CCN(CCOc2cc(OC3CCOCC3)c3c(Nc4c(Cl)ccc5c4OCO5)ncnc3c2)CC1 [saracatinib, N-(5-chloro-1,3-benzodioxol-4-yl)-7-[2-(4-methylpiperazin-1-yl)ethoxy]-5-(oxan-4-yloxy)quinazolin-4-amine]
mice that reached stage 5 seizure ([2]; SHD kainate 25 mg/kg, 67% in vehicle group): 7% | mortality during SE [2]: no mortality | mortality during SE ([2]; listed as SAR): reducing seizure severity and morality rate | latency to the onset of first CS ([2]; vs vehicle): increased latency | latency to the onset of first CS ([2]; vs vehicle, listed as SAR): increasing the latency of seizure onset | duration of convulsive seizures (CS) [2, 5]: significant reduction | seizure severity [2, 5]: significant reduction | seizure severity ([2]; saracatinib 25 mg/kg oral single dose 4 h prior to kainate, vs vehicle, 2 h established SE, listed as SAR): reducing seizure severity | crossing of the blood brain barrier (BBB) ([3]; LC-MS of hippocampus after 25 mg/kg oral): crossed the BBB | persistence in hippocampus, 8 h compared to 28 h ([3]; LC-MS, FIG. 1F): persisted in the hippocampus at higher levels at 8 h post-SE when compared to 28 h post-administration | rats that did not develop epilepsy (of seven treated) (rat kainate model of TLE; 28 d post-SE): four out of seven | rats that did not develop epilepsy (of seven treated) (rat kainate model of TLE; 28 d post-SE, listed as SAR): four | epileptiform spike counts / spiking frequency vs vehicle (rat kainate model of TLE; 28 d post-SE, video-EEG): significantly reduced | number of spontaneous CS vs vehicle (rat kainate model of TLE; 28 d post-SE, video-EEG): significantly reduced | number of spontaneous CS vs vehicle (rat kainate model of TLE; 28 d post-SE, video-EEG, listed as SAR): significant reduction | initial SE severity vs vehicle group (rat kainate model of TLE; before treatment (post-SE dosing)): no significant difference | rats not responding to treatment (rat kainate model of TLE; of seven treated rats): one rat did not respond | number of spontaneous CS in a month (two rats) (rat kainate model of TLE; two of seven treated rats, >24 episodes in vehicle group): < 10 | rats in which development of epilepsy was completely prevented (of seven) ([4]; 25 mg/kg oral twice daily 3 days then daily 4 days): four out of seven | animals not responding [4]: one animal did not respond | seizures in the other animals [4]: significantly reduced seizures
